GI50 and TGI data for eight compounds are collected here from PubChem BioAssay (NCI).

Molecules are shown by their SMILES. Several values for one entry are separate records, joined by “and”; a condition that tells them apart may be missing. Identical values can stand only once.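 Values below derive from 48-hour exposures of cells grown in 96-well plates, with endpoints linearly interpolated between the two concentrations bracketing the appropriate inhibition level. The concentration for 50% growth inhibition is given as GI50. The concentration for full growth arrest is given as TGI.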

Holding throughout (assay): DTP human tumour cell line panel, 48 h
Assay [1] has as its system CAKI-1 renal.
The subject of assay [2] is IGROV1 ovarian.
Assay [3] has as its system K-562 leukemia.
For assay [4], the system named is MCF7 breast.
In assay [5] the test system is NCI-H226 lung.
In assay [6] the test system is RXF 393 renal.
In assay [7] the test system is SF-268 CNS.
Assay [8] has as its system SK-MEL-2 melanoma.
Assay [9] has as its system SNB-19 CNS.
In assay [10] the test system is UACC-257 melanoma.

What is called GI50 is the concentration at which growth is held to half of that of the control. By TGI is commonly meant the concentration at which net growth stops. `CC1(C)C2CCC13C(=O)C1OC3(C2)C2C(=O)c3c(O)ccc(O)c3C(=O)C12` (stereo not drawn): the GI50 in [1] was 4.31 µM; in assay [2] it was 23.8 µM; in assay [3], 21.2 µM; in [4], 35 µM; in assay [5] it was > 79 µM; in assay [6], 31.1 µM. Moreover, the GI50 in assay [7] was > 47.1 µM; in assay [8], 26.1 µM; in assay [9], 61.5 µM; in assay [10], 32.7 µM. Also, the concentration for total growth inhibition (TGI) in [1] is 18.1 µM; in assay [2] it was > 100 µM; in [3], > 59.1 µM; in assay [4] it was > 100 µM; in assay [5] it was > 100 µM; in assay [6] it was > 56.9 µM. Also, the TGI in [7] is > 100 µM; in assay [8] it was > 100 µM; in assay [9], > 100 µM; in [10] it was > 66.7 µM.
Regarding `Cc1ccc(S(=O)(=O)n2cc(C(=O)C(=O)Nc3ccncc3)c3ccccc32)cc1`, the GI50 was 1.82 µM in assay [1]; 5.74 µM in assay [2]; 0.522 µM in [3]; 0.373 µM in assay [4]; 8.6 µM in assay [5]; 2.7 µM in [6]. The GI50 in assay [7] is 2 µM; in assay [8] it was 5.76 µM; in assay [9], 7.37 µM; in assay [10] it was 9.03 µM. Besides, the concentration for total growth inhibition (TGI) in assay [1] was > 100 µM; in assay [2], > 100 µM; in assay [3], > 100 µM; in [4], 27.3 µM; in [5], > 100 µM; in assay [6] it was 9.29 µM. Moreover, the TGI in [7] is > 100 µM; in [8] it was > 71.4 µM; in assay [9], > 100 µM; in assay [10], 98.1 µM.
`COc1cc2c(cc1OC)[C@@]1(C)C(=O)c3cc4c(cc3[C@H]1N(C)C2=O)OCO4`: the GI50 in [1] is 37.3 µM; in assay [2] it was 33.9 µM; in [3], 47.6 µM; in assay [4] it was 65.3 µM; in [5], 44.1 µM; in assay [6] it was 26.9 µM. The GI50 is 64.6 µM in assay [7], 40.4 µM in assay [8], > 100 µM in assay [9] and 23.7 µM in assay [10]. In addition, the total growth inhibition concentration (TGI) in [1], in assay [2], in assay [3], in [4], in assay [5] and in assay [6] was > 100 µM each time. The total growth inhibition concentration (TGI) in assay [7] is > 100 µM; in [8], > 100 µM; in assay [9], > 100 µM; in assay [10] it was 91.9 µM.
As for `O=C(O)c1cccc(CC(Br)C(=O)O)c1` (stereo not drawn), the TGI in assay [1], in [2], in [3], in assay [4], in [5] and in assay [6] was > 100 µM in each case. The TGI in assay [7], in [8], in assay [9] and in assay [10] was > 100 µM throughout.
With `C[C@]12CCC(=O)C=C1CC[C@@H]1[C@@H]2CC[C@]2(C)C(=O)/C(=C/c3cccc(OCCN4CCOCC4)c3)C[C@@H]12`, the GI50 in assay [1] is 11.9 µM; in [2], 23.5 µM; in assay [3], 3.51 µM; in [4] it was 9.11 µM; in assay [5] it was 14.2 µM; in [6], 5.62 µM. For the same compound, the GI50 in assay [7] was 13.6 µM; in assay [8], 16.1 µM; in assay [9], 15.8 µM; in assay [10] it was 6.13 µM. Further, the TGI in assay [1] was 48.3 µM; in assay [2], 95.9 µM; in assay [3] it was 15.5 µM; in [4], 71.7 µM; in assay [5], > 100 µM; in assay [6], 20.9 µM. Besides, the total growth inhibition concentration (TGI) in assay [7] was 76.6 µM; in assay [8], 34.4 µM; in assay [9], > 100 µM; in [10] it was 19 µM.
With `O=C(O)CCC1CCC(c2cc(F)ccc2F)(S(=O)(=O)c2ccc(Cl)cc2)CC1` (stereo not drawn), the TGI in [1] is 45.1 µM and > 100 µM; in [2] it was 65 µM and > 100 µM; in assay [3], > 100 µM; in [4], > 100 µM; in [5] it was > 100 µM; in assay [6] it was 78.8 µM and > 100 µM. Further, the concentration for total growth inhibition (TGI) is > 100 µM in [7]; 69.7 µM and > 100 µM in assay [8]; > 100 µM in assay [9]; > 100 µM in assay [10]. The GI50 in [2] was 18 µM and 80.7 µM; in [3], 34.6 µM and 34.7 µM; in assay [4] it was 29.2 µM and > 81.4 µM; in assay [5], 41.2 µM and > 100 µM; in assay [6], 12.5 µM and 76.6 µM; in [7], 48.3 µM and > 100 µM. Besides, the GI50 in assay [8] is 20.1 µM and > 100 µM; in assay [9] it was 55.1 µM and > 100 µM; in [10], 44 µM and > 100 µM.
Regarding `O=C1/C(=C/C(Cl)=C/c2ccccc2)SC(=S)N1CCc1ccc(O)cc1`, the GI50 in assay [1] is 1.52 µM; in assay [2] it was 2.02 µM; in assay [3], 2.17 µM; in assay [4], 1.85 µM; in assay [5] it was 2.17 µM; in assay [6], 1.58 µM. Further, the GI50 was 2.6 µM in assay [7], 2.56 µM in assay [8], 1.51 µM in assay [9] and 1.39 µM in [10]. Further, the TGI in assay [1] was 3.78 µM; in assay [2], 4.93 µM; in assay [3], > 100 µM; in assay [4], 16.9 µM; in assay [5], 7.16 µM; in assay [6], 3.2 µM. The TGI was determined as 10.3 µM in assay [7], 7.42 µM in assay [8], 2.95 µM in [9] and 3.61 µM in [10].
Consider `Cn1cnc2c(NCc3ccccc3)nc(NCCO)nc21`, for which the GI50 is 63.6 µM in [1]; 67.9 µM in [2]; 62.9 µM in assay [4]; 17.5 µM in assay [5]; 17.7 µM in assay [6]; 86.2 µM in assay [7]. The GI50 in [8] is 44.4 µM; in assay [9] it was 98.9 µM; in assay [10] it was 155 µM. Further, the TGI is > 90.6 µM and 265 µM in [1]; 334 µM in assay [2]; 489 µM in assay [3]; 90.4 µM and > 268 µM in assay [4]; > 93.2 µM and 183 µM in assay [5]; 40.4 µM and 187 µM in assay [6]. In addition, the TGI in assay [7] is > 91.2 µM and 223 µM; in [8] it was 178 µM; in assay [9], 382 µM; in [10], > 474 µM.
